Measurements taken from PubChem BioAssay AID179 (DTP/NCI, 2004).
Values joined by “and” are separate entries in the source; they are usually repeats but may differ in a detail not shown here. Equal values may be shown once. Active and inactive are the calls of the source.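 The calls were made as follows: active = compounds giving half or more protection of infected cells from virus-caused growth loss, again on retest; inactive = the rest.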

Test system: CEM cells HIV-1 protection, formazan growth assay
Experiment: NCI AIDS Antiviral Assay
Conditions: for IC50: measured here: growth of uninfected CEM cells
In short: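 Human CEM cells, uninfected and HIV-1-infected, exposed to five drug concentrations; growth measured by soluble formazan assay and scored as percent protection from infection, with protecting compounds retested.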

| Compound | EC50 | IC50 | outcome |
| --- | --- | --- | --- |
| CC(C)N=C(N)CSS(=O)(=O)O | > 200 µM | > 200 µM | – |
| CN(CCN(C)C(=S)NN)C(=S)NN | > 200 µM | 132 µM | – |
| Cc1cc2c(cc1C)[n+](=O)cc(C(=O)C/C(=N/NC(=S)NN)C(=O)Nc1cccc(C(F)(F)F)c1)n2[O-] | > 126 µM | > 126 µM | – |
| CS(=O)(=O)C(C#N)c1nc2ccccc2nc1Cl (centres undefined) | > 200 µM | > 200 µM | – |
| CCOC(=O)C1(C(C)=O)OC(=O)c2cnccc21 (centres undefined) | > 200 µM | > 200 µM | – |
| CCCCCCCCC(C)CCCCCCCCC(=O)OCC(COP(=O)([O-])OCC[N+](C)(C)C)OC(=O)CCCCCCCCC(C)CCCCCCCC (centres undefined) | – | – | inactive |
| CC(C)N1CSC(=S)NCCNC(=S)SC1 | > 200 µM | 95.5 µM | – |
| C=CCO/N=C/c1cc(NC(=S)c2ccoc2C)ccc1Cl | 0.0186 µM | 15.5 µM | – |
| COC(=O)[C@@H]1O[C@]12[C@@H](CO[Si](C)(C)C(C)(C)C)O[C@@H](n1cc(C)c(=O)[nH]c1=O)[C@@H]2O[Si](C)(C)C(C)(C)C | > 200 µM | 3.72 µM | – |
| COC(=O)C1CC(C=[N+](C)C)=C(SC)N1 (centres undefined) | > 200 µM | > 200 µM | – |
| C=CCC(C(=O)OC)C1(C(=O)OC)NCCc2c1[nH]c1ccccc21 (centres undefined) | > 324 µM | 178 µM | – |
| O=C1Nc2ccc(Cl)c(I)c2C1=O | > 61.7 µM | 35.5 µM | – |
| CCN1c2ccccc2NC(=S)c2c1n[nH]c2-c1ccccc1 | > 200 µM | 53.7 µM | – |
| Cc1ccc(C(=O)c2ccccc2)c(C(=O)O)c1 | > 200 µM | > 200 µM | – |
| O=C1CCNC/C1=C\c1ccccc1 | > 6920 µM | 19.1 µM | – |
| CCCCCCCCCCCCCC/C(=C/OCC[N+](C)(C)C)OC(C)=O (tested in a mixture with another compound) | > 200 µM | 0.355 µM | – |
| CN(C)CCCCN1CCc2c(n(C)c3ccccc23)C1=O | > 603 µM | 43.7 µM and 72.4 µM | – |
| Clc1ccc2c(c1)C1C(CO2)C(c2ccccc2)=NN1c1ccccc1 (centres undefined) | > 27.5 µM | > 27.5 µM | – |
| COc1cc2oc(-c3ccc(O)cc3O)c(CC=C(C)C)c(=O)c2c(O)c1/C=C/C(C)C | > 200 µM | 4.79 µM | – |
| NC1=NN(c2ccccc2)C(=O)C1/C(=N\NC(=O)c1cc2ccccc2cc1O)C(=O)Nc1ccc(Cl)c(Cl)c1 (centres undefined) | > 45.7 µM | > 45.7 µM | – |
| CCOC(=O)NC(C(C(=O)OCC)C(=O)OCC)(C(F)(F)F)C(F)(F)F | > 200 µM | > 200 µM | – |
| O=c1oc2ccccc2cc1-c1nc2ccccc2c(=O)[nH]1 | > 100 µM | > 100 µM | – |
| CCCCCCCCCCCCCCCCCC(CCCCCCCCCCCCCCCCC)OP(=O)(O)O | – | – | inactive |

| Compound | EC50 | IC50 | outcome |
| --- | --- | --- | --- |
| CCCCCCCCCc1nn2c(Cc3ccccc3)nnc2s1 | > 200 µM | 36.3 µM | – |
| COC1OC(CCC2NC(CO)C(O)C(O)C2O)C(O)C(O)C1O (centres undefined) | > 200 µM | > 200 µM | – |
| Cn1c(=O)c2c(nc(NCC[N+](C)(C)C)n2C)n(C)c1=O | – | – | inactive |
| S=C1NCCN1C(=S)NC1CCCCC1 | 22.4 µM | > 100 µM | – |
| C[C@H](O)CCC(=O)c1ccoc1 | > 1480 µM | > 1480 µM | – |
| CCOC(=O)c1ncoc1[C@H]1COC(C)(C)O1 | – | – | inactive |
| NC(CSSCC(N)=NCC12CC3CC(CC(C3)C1)C2)=NCC12CC3CC(CC(C3)C1)C2 | > 200 µM | 30.9 µM | – |
| Fc1ccc2c(c1)SC1Oc3ccccc3-c3c1c-2nn3-c1ccccc1 (centres undefined) | > 19.5 µM | > 19.5 µM | – |
| N#C/C(C(=O)Nc1ccccc1)=C(/N)N1CCCC1 | > 200 µM | 174 µM | – |
| CCN(CC)CC(O)CNc1c2ccc([N+](=O)[O-])cc2nc2cc(OC)c(OC)cc12 (centres undefined) | – | – | inactive |
| CC1(C)OOC(O)C=C1c1ccccc1 (centres undefined) | > 126 µM | > 126 µM | – |
| COc1ccc(CCNC(=O)Cc2ccccc2CO)cc1OC | > 200 µM | > 200 µM | – |
| CCOC(=O)N1CCN(C=S)CC1 | > 1230 µM | > 1230 µM | – |
| C=COC(=O)N1C2CCCC(Cl)(C(C)=O)C1CC2 (centres undefined) | > 200 µM | 55 µM | – |
| COc1cccc(-c2cc(C(=O)Nc3ccc(Cl)cc3)nc(N)n2)c1 | > 72.4 µM | 52.5 µM | – |
| Cc1cc(N(CCC#N)CCC#N)ccc1N=Nc1cccc(Cl)c1 | > 7.76 µM | > 7.76 µM | – |
| CCCCCCOC(=O)c1[nH]c(=O)n(CCCCCC)c(=O)c1N | > 200 µM | 151 µM | – |
| O=C(NNC(=O)c1ccncc1)C(=O)Nc1cc(Cl)c(Cl)cc1Cl | > 18.6 µM | > 18.6 µM | – |
| CN(C)C(=Nc1nc(=[N+](C)C)ss1)N(C)C | – | – | inactive |
| CN(C)c1ccc(/C=C2\Cc3ccccc3C2=O)cc1Br | > 11 µM | > 11 µM | – |
| CC[C@@]1(C[C@H]2C[C@@]3(C(=O)OC)c4[nH]c5ccccc5c4CCN3C2=O)COC2(CCCCC2)O1 | > 200 µM | 35.5 µM | – |
| CN1C=C/C(=C/[N+](=O)[O-])N(C)C1=O | > 200 µM | > 200 µM | – |
| Cc1cc(C)n(-c2nc3ccccc3c(=O)[nH]2)n1 | > 5.13 µM | 1.07 µM | – |

| Compound | EC50 | IC50 | outcome |
| --- | --- | --- | --- |
| C[C@@]1(OC(=O)c2cc([N+](=O)[O-])cc([N+](=O)[O-])c2)C[C@@H]2CCCC[C@@H]21 | – | – | inactive |
| COc1ccc(CCC2(C(OC)OC)NC(=O)NC2=O)cc1 (centres undefined) | > 200 µM | > 200 µM | – |
| Cn1c(=O)c2c(nc(N/N=c3/scc(-c4ccccc4)n3Cc3ccccc3)n2C)n(C)c1=O | > 200 µM | 12.3 µM | – |
| c1ccc(C2=Nc3ccccc3C(c3ccccc3)=Nc3ccccc32)cc1 | > 72.4 µM | > 72.4 µM | – |
| C[C@H]1OCN2C(=O)c3ccccc3SC(=O)[C@H]12 | > 200 µM | > 200 µM | – |
| CC1(C)OC(=O)C(=Cc2cccc(C#N)c2)C(=O)O1 | > 708 µM | 41.7 µM | – |
| CN=C(NNc1ccc([N+](=O)[O-])cc1)P(=O)(OC(C)C)OC(C)C | > 7.24 µM | > 7.24 µM | – |
| Cc1ccc2c(c1)C1(C)OC(C=CC1=O)O2 (centres undefined) | > 3.16 µM | 0.525 µM | – |
| N.N.N.N.N.O=C([O-])C(=O)[O-].[Co+3].[O-][Cl+3]([O-])([O-])O.[O-][Cl+3]([O-])([O-])[O-] | – | – | inactive |
| O=C(NC1C=CCC2C(=O)N(c3ccccc3)C(=O)C12)OCc1ccccc1 (centres undefined) | – | – | inactive |
| COc1ccc2[nH]c(C[P+](c3ccccc3)(c3ccccc3)c3ccccc3)cc2c1 | > 200 µM | 12 µM | – |
| Cc1ccc(S(=O)(=O)/N=C(\N)N(C)N=O)cc1 | > 200 µM | 63.1 µM | – |
| C=CCn1c(=O)c(C(=O)Nc2nc(C34CC5CC(CC(C5)C3)C4)cs2)c(O)c2ccccc21 | > 200 µM | 77.6 µM | – |
| COP(=O)(OC)/C(=C/c1cn(C(C)=O)c2ccccc12)NC(C)=O | > 200 µM | 17.4 µM | – |
| N#Cc1ccc(C(C2C(=O)NC(=O)NC2=O)C2C(=O)NC(=O)NC2=O)cc1 | > 70.8 µM | > 70.8 µM | – |
| O=C(O)C1CCC(c2ccc(F)cc2)=N1 (centres undefined) | > 200 µM | > 200 µM | – |
| C[C@@H]1C[C@@H](O)[C@@]2(O)C13CC(=O)OC(C3)[C@@H](C)[C@@]2(C)CO (some centres undefined) | > 200 µM | > 200 µM | – |
| CC1CC(C)S(=O)CS1 (centres undefined) | > 759 µM | > 759 µM | – |
| CN(C)CN1C(=O)S/C(=C2\C(=O)N(CN(C)C)c3ccccc32)C1=O | > 200 µM | 38 µM | – |
| CC(C)c1ccc(C(=O)c2ccccc2C(=O)O)cc1 | > 200 µM | > 200 µM | – |
| Cc1ccc(SC23C=CC(CC24CCOC4=O)OC3=O)cc1 (centres undefined) | > 200 µM | > 200 µM | – |
| CS(=O)(=O)C(=Cc1ccccc1Cl)S(C)(=O)=O | – | – | inactive |
| CC(=O)N(C(C)=O)c1cnc2c(nc3cc(C)ccn32)c1C | > 200 µM | 52.5 µM | – |

| Compound | EC50 | IC50 | outcome |
| --- | --- | --- | --- |
| O=C1/C(=C/c2ccccc2)CN(C(=O)C(Cl)(Cl)Cl)C/C1=C\c1ccccc1 | – | – | inactive |
| Cc1cc(=O)oc2cc(OCc3nc4ccccc4c(=O)[nH]3)ccc12 | > 107 µM | > 107 µM | – |
| COc1c(O)cc2oc3cc(O)c(CC=C(C)C)c(O)c3c(=O)c2c1CC=C(C)C | > 229 µM | 16.6 µM and 10.7 µM | – |
| C=CCOCn1ccc(NC(=O)c2ccccc2)nc1=O | > 200 µM | > 200 µM | – |
| CC(=C(C#N)C#N)c1ccc(F)cc1 | > 138 µM | 112 µM | – |
| C1CSCCSCCCSCCSCCCSCCSC1 | > 200 µM | > 200 µM | – |
| CN1C(=O)/C(=c2\sc3nc4ccccc4n3c2=O)c2ccccc21 | – | – | inactive |
| CC(=O)CC(=O)Nc1ccccc1.CC(=O)CC(=O)Nc1ccccc1.[Cu] | > 200 µM | 17.4 µM | – |
| S=c1nc(/C=C/c2ccc(Cl)c(Cl)c2)[nH][nH]1 | > 36.3 µM | > 36.3 µM | – |
| CC(C)(C)OC(=O)NC1CCCC1C(O)(C1=CCCC1)C1=CCCC1 (centres undefined) | > 200 µM | 120 µM | – |
| O=[N+]([O-])c1cc2c(c3nonc13)OCCCCO2 | > 200 µM | 1.15 µM | – |
| O=c1oc2ccccc2c(O)c1C(c1ccc2c(c1)OCO2)N1CCCC1 (centres undefined) | > 200 µM | 93.3 µM | – |
| CN(N)/N=N/c1nc[nH]c1C(N)=O | > 2 µM | 1.45 µM | – |
| Cc1nc2ccccc2c(=O)n1NC(=S)Nc1ccc(Cl)cc1[N+](=O)[O-] | > 93.3 µM | > 93.3 µM | – |
| O=C(/C=C/c1ccccc1O)c1cccc2ccccc12 | 93.3 µM | 95.5 µM | – |
| CCC1C(NC(=O)OC)C(=O)N1[C@@H](C)c1ccccc1 (some centres undefined) | > 200 µM | > 200 µM | – |
| CCOC(=O)CSc1nc(N)c2c(-c3ccc(OC)c(OC)c3)c3c(nc2n1)CCCC3 | > 200 µM | > 200 µM | – |
| CC1Cn2c(nnc2-c2ccccc2O)S1 (centres undefined) | – | – | inactive |
| O=[N+]([O-])c1ccc(-c2cn(-c3ccc(Cl)cc3)cn2)cc1 | > 100 µM | > 100 µM | – |
| O=C(O)C1C(C(=O)O)N2C(c3ccccc3)C(C(=O)O)C(C(=O)O)N2C1c1ccccc1 (centres undefined) | > 214 µM | > 214 µM | – |
| O=C1OC(c2ccccc2)=N/C1=C\c1ccc2ccccc2c1 | > 17.4 µM | > 17.4 µM | – |
| Cc1cc(S(=O)(=O)Nc2nc(Nc3ccccc3)nn2C)c(S)cc1Cl | > 200 µM | 166 µM | – |
